Experimental data reported in PubChem BioAssay AID328 (DTP/NCI, 2004).
Several values for one entry are separate records, joined by “and”; a condition that tells them apart may be missing. Equal values may be shown once. Inconclusive results and toxic doses are left out. Rule for the calls: active = survival T/C of 150% or more; inactive = T/C below 125% in these data.

System: BDF1 mice, P388 leukemia ip, median survival T/C
Assay: NCI In Vivo Anticancer Drug Screen. Data for tumor model P388 Leukemia (intraperitoneal) in B6D2F1 (BDF1) mice
Conditions: endpoint: median survival time, higher = longer survival
Outline: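 Transplantable tumour in mice; compound vs vehicle dosing; survival scored; ratio of treated to control reported.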

[1] = dose: 50.0 mg/kg/injection, schedule: Q04DX003 (ip), vehicle: saline
[2] = dose: 50.0 mg/kg/injection, schedule: Q01DX009 (ip), vehicle: saline with Tween-80
[3] = dose: 100.0 mg/kg/injection, schedule: Q01DX009 (ip), vehicle: saline with Tween-80
[4] = dose: 200.0 mg/kg/injection, schedule: Q01DX009 (ip), vehicle: saline with Tween-80
[5] = dose: 12.5 mg/kg/injection, schedule: Q01DX009 (ip), vehicle: saline
[6] = dose: 25.0 mg/kg/injection, schedule: Q01DX009 (ip), vehicle: saline
[7] = dose: 50.0 mg/kg/injection, schedule: Q01DX009 (ip), vehicle: saline
[8] = dose: 100.0 mg/kg/injection, schedule: Q01DX009 (ip), vehicle: saline
[9] = dose: 100.0 mg/kg/injection, schedule: Q04DX003 (ip), vehicle: saline
[10] = dose: 200.0 mg/kg/injection, schedule: Q01DX009 (ip), vehicle: saline
[11] = dose: 200.0 mg/kg/injection, schedule: Q04DX003 (ip), vehicle: saline
[12] = dose: 400.0 mg/kg/injection, schedule: Q04DX003 (ip), vehicle: saline
[13] = dose: 50.0 mg/kg/injection, schedule: Q01DX005 (ip), vehicle: saline with Tween-80
[14] = dose: 100.0 mg/kg/injection, schedule: Q01DX005 (ip), vehicle: saline with Tween-80
[15] = dose: 200.0 mg/kg/injection, schedule: Q01DX005 (ip), vehicle: saline with Tween-80
[16] = dose: 400.0 mg/kg/injection, schedule: Q01DX009 (ip), vehicle: saline

Measured: T/C

CCOC(=O)N(C)C1CCC1NC (centres undefined)
inactive: dose: 50.0 mg/kg/injection, schedule: Q01DX001 (ip), vehicle: saline 100 % of control | dose: 100.0 mg/kg/injection, schedule: Q01DX001 (ip), vehicle: saline 95 % of control | dose: 200.0 mg/kg/injection, schedule: Q01DX001 (ip), vehicle: saline 95 % of control

COc1cccc2c(=O)cc(C)[nH]c12
inactive: dose: 25.0 mg/kg/injection, schedule: Q01DX009 (ip), vehicle: water 107 % of control | dose: 50.0 mg/kg/injection, schedule: Q01DX009 (ip), vehicle: water 92 % of control | dose: 50.0 mg/kg/injection, schedule: Q04DX003 (ip), vehicle: water 103 % of control | dose: 100.0 mg/kg/injection, schedule: Q01DX009 (ip), vehicle: water 101 % of control | dose: 100.0 mg/kg/injection, schedule: Q04DX003 (ip), vehicle: water 97 % of control | dose: 200.0 mg/kg/injection, schedule: Q01DX009 (ip), vehicle: water 91 % of control | dose: 200.0 mg/kg/injection, schedule: Q04DX003 (ip), vehicle: water 106 % of control | dose: 400.0 mg/kg/injection, schedule: Q01DX009 (ip), vehicle: water 90 % of control | dose: 400.0 mg/kg/injection, schedule: Q04DX003 (ip), vehicle: water 98 % of control

CC1CN1CCS(=O)(=O)CCN1CC1C (centres undefined)
active: dose: 150.0 mg/kg/injection, schedule: Q01DX009 (ip), vehicle: other 163 % of control | dose: 225.0 mg/kg/injection, schedule: Q01DX009 (ip), vehicle: other 209 % of control
inactive: dose: 22.0 mg/kg/injection, schedule: Q04DX003 (ip), vehicle: saline 105 % of control | dose: 33.0 mg/kg/injection, schedule: Q04DX003 (ip), vehicle: saline 100 % of control | [1] 111 % of control | dose: 75.0 mg/kg/injection, schedule: Q04DX003 (ip), vehicle: saline 122 % of control

O=C1Nc2ccc(Br)cc2C1=Nc1ccc2c(c1)OCO2
inactive: [2] 113 % of control | [3] 111 % of control | [4] 108 % of control | dose: 400.0 mg/kg/injection, schedule: Q01DX009 (ip), vehicle: saline with Tween-80 111 % of control

CC(=O)O[C@H]1[C@H]2O[C@]23[C@@H]2CC[C@@H]4C[C@@H](OC(=O)CCC(=O)O)CC[C@]4(C)[C@H]2CC[C@]3(C)[C@H]1c1ccc(=O)oc1
inactive: dose: 0.13 mg/kg/injection, schedule: Q01DX009 (ip), vehicle: Klucel (hydroxypropylcellulose) (HPC) 100 % of control | dose: 0.25 mg/kg/injection, schedule: Q01DX009 (ip), vehicle: Klucel (hydroxypropylcellulose) (HPC) 101 % of control | dose: 0.5 mg/kg/injection, schedule: Q01DX009 (ip), vehicle: Klucel (hydroxypropylcellulose) (HPC) 101 % of control

O=C(CSc1cc(-c2ccc(Cl)cc2)s[s+]1)c1ccc(Cl)cc1
inactive: [5] 109 % of control | [6] 89 % of control | [7] 89 % of control | [1] 97 % of control | [8] 101 % of control | [9] 90 % of control and 100 % of control and 105 % of control | [10] 107 % of control | [11] 97 % of control and 111 % of control | dose: 300.0 mg/kg/injection, schedule: Q04DX003 (ip), vehicle: saline 111 % of control | [12] 103 % of control

Oc1ccc(-c2n[nH]c3c2CCCc2ccccc2-3)cc1
inactive: dose: 12.5 mg/kg/injection, schedule: Q04DX003 (ip), vehicle: saline with Tween-80 109 % of control | dose: 25.0 mg/kg/injection, schedule: Q04DX003 (ip), vehicle: saline with Tween-80 118 % of control | dose: 50.0 mg/kg/injection, schedule: Q04DX003 (ip), vehicle: saline with Tween-80 113 % of control

Nc1cc(/C=C/c2ccc([N+](=O)[O-])cc2)nc2ccccc12
inactive: dose: 25.0 mg/kg/injection, schedule: Q04DX002 (ip), vehicle: saline with Tween-80 101 % of control | [2] 88 % of control | dose: 50.0 mg/kg/injection, schedule: Q04DX002 (ip), vehicle: saline with Tween-80 117 % of control | [3] 94 % of control | [4] 94 % of control | dose: 200.0 mg/kg/injection, schedule: Q04DX002 (ip), vehicle: saline with Tween-80 88 % of control

COc1cccc2c1C(=O)c1c(O)c3c(c(O)c1C2=O)C[C@@](O)(/C(C)=N/NC(=O)c1ccc(N(C)C)cc1)C[C@@H]3OC1CC(N)C(O)C(C)O1 (some centres undefined)
active: dose: 2.0 mg/kg/injection, schedule: Q01DX009 (ip), vehicle: water 233 % of control and 154 % of control | dose: 4.0 mg/kg/injection, schedule: Q01DX009 (ip), vehicle: water 179 % of control | dose: 8.0 mg/kg/injection, schedule: Q01DX009 (ip), vehicle: water 243 % of control
inactive: dose: 0.25 mg/kg/injection, schedule: Q01DX009 (ip), vehicle: water 96 % of control | dose: 1.0 mg/kg/injection, schedule: Q01DX009 (ip), vehicle: water 107 % of control and 110 % of control

NC(COC(c1ccccc1)(c1ccccc1)c1ccccc1)C(=O)O (centres undefined)
active: dose: 65.0 mg/kg/injection, schedule: Q01DX009 (ip), vehicle: Klucel (hydroxypropylcellulose) (HPC) 150 % of control | dose: 100.0 mg/kg/injection, schedule: Q01DX009 (ip), vehicle: Klucel (hydroxypropylcellulose) (HPC) 155 % of control and 160 % of control | dose: 150.0 mg/kg/injection, schedule: Q01DX009 (ip), vehicle: Klucel (hydroxypropylcellulose) (HPC) 205 % of control | dose: 200.0 mg/kg/injection, schedule: Q04DX003 (ip), vehicle: other 150 % of control | dose: 300.0 mg/kg/injection, schedule: Q04DX003 (ip), vehicle: other 200 % of control
inactive: dose: 50.0 mg/kg/injection, schedule: Q01DX009 (ip), vehicle: Klucel (hydroxypropylcellulose) (HPC) 120 % of control | dose: 85.0 mg/kg/injection, schedule: Q04DX003 (ip), vehicle: other 120 % of control | [9] 122 % of control | dose: 200.0 mg/kg/injection, schedule: Q01DX009 (ip), vehicle: Klucel (hydroxypropylcellulose) (HPC) 90 % of control

COC(=O)c1cc([N+](=O)[O-])ccc1Cl
inactive: [9] 98 % of control | [11] 102 % of control | [12] 100 % of control

COc1cc2c(cc1OC)[C@H]1Cc3cc(OC)c(OC)cc3[C@@H](C2)N1C(C)=O
inactive: [13] 91 % of control | [14] 91 % of control | [15] 93 % of control

C(=C(\Cc1ccccc1)c1ccccc1)/c1ccccc1
inactive: [13] 99 % of control | [14] 103 % of control | [15] 103 % of control

Cc1nn(C)c(N)c1C#N
inactive: [5] 87 % of control | [6] 94 % of control | dose: 25.0 mg/kg/injection, schedule: Q04DX003 (ip), vehicle: saline 103 % of control | [7] 87 % of control | [1] 97 % of control | [8] 101 % of control | [9] 92 % of control | [10] 100 % of control | [11] 97 % of control | [16] 92 % of control | [12] 97 % of control

CCCC(C)(C)c1cc(C(C)C)cc(C(C)(C)CCC)c1O
inactive: dose: 12.5 mg/kg/injection, schedule: Q01DX009 (ip), vehicle: other 112 % of control | dose: 25.0 mg/kg/injection, schedule: Q01DX009 (ip), vehicle: other 118 % of control | dose: 50.0 mg/kg/injection, schedule: Q01DX009 (ip), vehicle: other 97 % of control

Clc1ccc(-c2nc3ccccc3cc2N2CCCCC2)cc1
inactive: dose: 100.0 mg/kg/injection, schedule: Q01DX001 (ip), vehicle: other 110 % of control | dose: 200.0 mg/kg/injection, schedule: Q01DX001 (ip), vehicle: other 105 % of control | dose: 400.0 mg/kg/injection, schedule: Q01DX001 (ip), vehicle: other 105 % of control

O=C(C=C(C(F)(F)F)C(F)(F)F)c1cccc(Cl)c1
inactive: dose: 6.25 mg/kg/injection, schedule: Q01DX009 (ip), vehicle: saline with Tween-80 122 % of control | dose: 12.5 mg/kg/injection, schedule: Q01DX009 (ip), vehicle: saline with Tween-80 100 % of control

Cc1ccc2ccccc2c1Cc1c(C=O)[nH]c(=S)[nH]c1=O
inactive: dose: 100.0 mg/kg/injection, schedule: Q04DX003 (ip), vehicle: saline with Tween-80 104 % of control | dose: 200.0 mg/kg/injection, schedule: Q04DX003 (ip), vehicle: saline with Tween-80 122 % of control

c1ccc(-c2c[n+]3cc4ccccc4cc3cn2)cc1
inactive: [8] 95 % of control | [9] 100 % of control | [10] 91 % of control | [11] 113 % of control | [16] 91 % of control | [12] 95 % of control
